This is an account of results in patent US7638547B2, “Cis-alkoxy-substituted spirocyclic 1H-pyrrolidine-2,4-dione derivatives serving as pesticides” (Bayer CropScience AG, priority 2002, dated 2009).

Experiment [1] concerns greenhouse red spider mite (Tetranychus urticae). Nature of the experiment: Tetranychus Test, OP-resistant/spray treatment (Example I). The class given is in vivo. Conditions: 100 ppm active compound, bean leaf discs sprayed, OP-resistant. As to the method: Solvents: 78 parts by weight of acetone
• 1.5 parts by weight of dimethylformamide Emulsifier: 0.5 part by weight of alkylaryl polyglycol ether
After the desired period of time, the activity in % is determined.

The test system of experiment [2] is larvae of the mustard beetle (Phaedon cochleariae). Nature of the experiment: Phaedon Larvae Test (Example G). Conditions: 100 ppm active compound, cabbage leaves dipped.
For experiment [3], the system named is caterpillars of the armyworm (Spodoptera frugiperda). Nature of the experiment: Spodoptera frugiperda Test (Example H). Format: in vivo. The conditions noted are these: 100 ppm active compound, cabbage leaves dipped. An excerpt: (§1) Solvent: 7 parts by weight of dimethylformamide
The subject of experiment [4] is larvae of the mustard beetle (Phaedon cochleariae). Nature of the experiment: Phaedon Larvae Test (Example C). The conditions noted are these: cabbage leaves dipped.
Experiment [5] has as its system cotton aphid (Aphis gossypii). Nature of the experiment: Aphis gossypii Test (Example A). The class given is in vivo. The conditions noted are these: 20 ppm active compound, cotton leaves dipped.
Text: as §1

In experiment [6] the test system is caterpillars of the diamondback moth (Plutella xylostella/resistant strain). Nature of the experiment: Plutella Test, resistant strain (Example D). The class given is in vivo. Conditions: 4 ppm active compound, cabbage leaves dipped.
Text: as §1

The test system of experiment [7] is Heliothis virescens caterpillars. Nature of the experiment: Heliothis virescens Test (Example B). Format: in vivo. The conditions noted are these: 500 ppm active compound, soybean shoots dipped.
Text: as §1

For experiment [8], the system named is peach aphid (Myzus persicae). Nature of the experiment: Myzus Test (Example F). Format: in vivo. The conditions noted are these: 4 ppm active compound, cabbage leaves dipped.
Text: as §1

For experiment [9], the system named is greenhouse red spider mite (Tetranychus urticae). The experiment is described as follows: Tetranychus Test, OP-resistant/dip treatment (Example J). The conditions noted are these: 4 ppm active compound, bean plants dipped, OP-resistant. The class given is in vivo.

Take `CCOC1CCC2(CC1)NC(=O)C(c1cc(C)ccc1Cl)=C2OC(=O)C(C)C` (stereo not drawn): the “Kill rate in % after 4^d” value in [1] stood at 70%.
As for `CO[C@H]1CC[C@]2(CC1)NC(=O)C(c1cc(C)ccc1C)=C2O` [Example I-a-1], the entries for the “Kill rate in % after 7^d” value in experiment [2] and in [3] were 100% and 50%, respectively.
As to `CCOC(=O)OC1=C(c2cc(C)ccc2C)C(=O)N[C@]12CC[C@@H](OC)CC2` [Example I-c-1], the “Kill rate in % after 7^d” value in experiment [4] (20 ppm active compound) was 80%; in experiment [4] (100 ppm active compound) it was 100%. Also, in experiment [5], the “Kill rate in % after 6^d” value was 90%.
For `CCOC(=O)OC1=C(c2cc(C)ccc2Br)C(=O)N[C@]12CC[C@@H](OC)CC2` [Example I-c-2], the “Kill rate in % after 6^d” value in experiment [6] and in [7] was 100% throughout.
`CCOC(=O)OC1=C(c2cc(Br)ccc2C)C(=O)N[C@]12CC[C@@H](OC)CC2` [Example I-c-4]: the “Kill rate in % after 6^d” value in [8] is recorded as 50%. Further, the “Kill rate in % after 7^d” value in experiment [9] stood at 40%; in experiment [2] it was 25%; in [3], 20%.
